Laboratory results as given in patent US6528675B1, “Cyanohydrin ethers and esters as high-sensitivity enzyme substrates” (The Regents of the University of California, priority 2001, dated 2003).
Blank lines part the entries; values can stand above or below the compound they belong to.

Legend:
[1] = test system: porcine esterase; assay: Sensitivity of substrate to enzyme strength; format: biochemical; conditions: pH 8.0, 10 μM substrate, 1 unit=1 μmol/min/mL
Method: This example illustrates the sensitivity of the substrate to the enzyme, and compares a substrate in accordance with the present invention to two prior art substrates. […] The enzyme was porcine esterase.
A tris-maleate buffer at pH 8.0 (0.1 M) was used. The procedure consisted of adding substrate to a test tube containing 3 mL of buffer to a final substrate concentration of 10 μM, then adding porcine esterase at strengths of 0.06, 0.09. 0.12, 0.18, 0.30, 0.60, 0.9 and 1.2 unit, in which 1 unit=1 μmol/min/mL. […] The enzyme sensitivities for each substrate and detection method were defined as the minimal amount of enzyme per mL required to produce a signal from the substrate that was at least three times greater than the background noise.

[2] = Change in optical properties, fluorescence of esters and hydrolysis products; format: physicochemical
Description: The substrates representing the invention were (R/S)-acetic acid cyano-(6-methoxynaphthalen-2-yl)-methyl ester (the title compound of Synthesis Example 1 above) and (trans/cis)-3-(2,2-dichlorovinyl)-2,2-dimethylcyclopropanecarboxylic acid cyano-(6-methoxynaphthalen-2-yl)-methyl ester (the title compound of Synthesis Example 2 above). The substrates of the prior art were methylumbelyl acetate (for detection by fluorescence emission) and 2-naphthacetate (for detection by UV absorption) in assay solutions with different pH values. These prior art substrates were selected because both are widely used and both have aromatic systems similar to the two test compounds.
Again using tris-maleate at pH levels of 6.5, 7.5, and 8.5, fluorescence studies were performed at concentrations of 10 μM, and fluorescence of the starting esters and the hydrolysis products (hydroxycoumarin in the case of methylumbelyl acetate and 6-methoxy-naphthaldehyde in the case of the Example 1 substrate) were determined by conventional instrumentation. The results are listed in Table III in which “MUA” denotes methylumbelyl acetate, “Compound I” denotes the Example 1 substrate, “Ex” denotes the optimal excitation wavelength in nm, “Emmax” denotes the maximal emission wavelength in nm, and “RFU” denotes the relative fluorescence units multiplied by 1,000.

[3] = test system: cytochrome P450; assay: Substrate response to P450 enzyme activity, rat microsomal enzyme preparation; format: biochemical, rats; conditions: pH 7.6, 37° C., substrate 10 mM final concentration, average of three tests
Description: This example compares four cytochrome P450 substrates within the scope of this invention with two cytochrome P450 substrates that are outside the scope of this invention. The four invention substrates were methoxynaphthalen-2-yl acetonitrile (whose synthesis is shown in Example 8 above and which is designated below as Compound III), ethoxynaphthalen-2-yl acetonitrile (synthesis shown in Example 9, Compound IV), benzoxynaphthalen-2-yl acetonitrile (synthesis shown in Example 10, Compound V), and pentoxynaphthalen-2-yl acetonitrile (synthesis shown in Example 11, Compound VI). The substrates outside the scope of the invention were ethoxyresorufin (designated below as Compound A) and pentoxyresorufin (designated below as Compound B). The structures of these last two substrates are as follows: [drawing 56]
All substrates were tested against a microsomal enzyme preparation from 8-week-old Fisher […] rats, by first combining 890 mL of the preparation with 2 mL of phosphate buffer (pH 7.6, 0.2 M) and incubating the mixture at 37° C. for 5 minutes. The substrate (10 mL) was then added (10 mM final concentration), followed by an appropriate signal generating system (100 mL). The samples were immediately read by fluorometer at 460 nm for 1 minute with excitation at 330 nm. The results in terms of specific activity, both with and without the enzyme system, are shown in Table VII, in which each entry represents an average of three tests.

[4] = Substrate stability in buffer, UV detection; format: physicochemical; conditions: 10 μM substrate, no enzyme, 5-minute reading
Method: (§1) The same two invention substrates and two prior art substrates were tested for stability by both UV detection and fluorescence detection under typical assay conditions.
(§2) Tris maleate buffers (0.1 M) at pH ranging from 6.0 to 9.0 in intervals of 1.0 were used, and substrate was added to 10 μM final concentration. […] The fluorescence samples were read with excitation at 360 nm and emission at 460 nm (for pH 6.0), 465 nm (for pH 7.0), 485 nm (pH 8.0), and 510 nm (pH 9.0) for the methylumbelyl acetate, and with excitation at 330 nm and emission at 460 nm for the two test compounds, in all cases, the readings over 5-minute periods.

[5] = Substrate stability in buffer, fluorescence detection; format: physicochemical; conditions: 10 μM substrate, no enzyme, 5-minute reading
Method: as §1, §2

[6] = test system: homogenate of Heliothis virescens, pyrethroid-resistant strain; assay: Specific activity of esterase against substrates; format: biochemical; conditions: H. virescens (resistant), pH 8.0, 10 μM substrate, fluorescence 330/460 nm
Method: (§3) The esterases were porcine esterase purchased from Sigma Chemical Company, St. Louis, Mo., USA, esterase from a rat liver microsomal preparation from 8-week-old Fisher 344 rats, and homogenates of Heliothis virescens from both pyrethroid-susceptible and -resistant strains of tobacco budworm. The substrate in each case was added to a tris-maleate buffer (pH 8.0, 0.1 m) to a final substrate concentration of 10 μM, followed by the addition of the enzyme preparation. The samples were then immediately read by fluorometer at 460 nm for one minute (excitation at 330 nm). The results are listed in Table VI, where “Compound I” denotes the Example 1 substrate, and “Compound II” denotes the Example 4 substrate.

[7] = test system: homogenate of Heliothis virescens, pyrethroid-susceptible strain; assay: Specific activity of esterase against substrates; format: biochemical; conditions: H. virescens (susceptible), pH 8.0, 10 μM substrate, fluorescence 330/460 nm
Method: as §3

[8] = test system: porcine esterase; assay: Specific activity of esterase against substrates; format: biochemical; conditions: pH 8.0, 10 μM substrate, fluorescence 330/460 nm
Method: as §3

[9] = test system: esterase from a rat liver microsomal preparation; assay: Specific activity of esterase against substrates; format: biochemical, Fisher 344 rats; conditions: Rat liver microsome, pH 8.0, 10 μM substrate, fluorescence 330/460 nm
Method: as §3

[10] = Change in optical properties, UV absorption of esters and hydrolysis products; format: physicochemical; conditions: for ε (molar absorptivity): in M-1 cm-1 (unit assumed)
Description: The substrates representing the invention were (R/S)-acetic acid cyano-(6-methoxynaphthalen-2-yl)-methyl ester (the title compound of Synthesis Example 1 above) and (trans/cis)-3-(2,2-dichlorovinyl)-2,2-dimethylcyclopropanecarboxylic acid cyano-(6-methoxynaphthalen-2-yl)-methyl ester (the title compound of Synthesis Example 2 above).

- Sensitivity (minimal amount of enzyme per mL giving a signal at least three times background noise) ([1]; Fluorescence detection): 0.0005
- Emmax (maximal emission wavelength) ([2]; tris-maleate pH 6.5, 10 μM): 366 nm
- Ex (optimal excitation wavelength) ([2]; tris-maleate pH 6.5, 10 μM): 330 nm
- RFU (relative fluorescence units multiplied by 1,000) ([2]; tris-maleate pH 6.5, 10 μM): 2,672 RFU
- Emmax (maximal emission wavelength) ([2]; tris-maleate pH 7.5, 10 μM): 366 nm
- Ex (optimal excitation wavelength) ([2]; tris-maleate pH 7.5, 10 μM): 330 nm
- RFU (relative fluorescence units multiplied by 1,000) ([2]; tris-maleate pH 7.5, 10 μM): 1,350 RFU
- Emmax (maximal emission wavelength) ([2]; tris-maleate pH 8.5, 10 μM): 366 nm
- Ex (optimal excitation wavelength) ([2]; tris-maleate pH 8.5, 10 μM): 330 nm
- RFU (relative fluorescence units multiplied by 1,000) ([2]; tris-maleate pH 8.5, 10 μM): 1,600 RFU
Compound: CC(=O)Oc1ccc2c(C)cc(=O)oc2c1 [MUA, methylumbelyl acetate, reference compound]

Compound: COc1ccc2cc(C(C#N)OC(=O)C3C(C=C(Cl)Cl)C3(C)C)ccc2c1 (mixture of isomers) [Compound II, (trans/cis)-3-(2,2-Dichlorovinyl)-2,2-dimethylcyclopropanecarboxylic Acid Cyano-(6-methoxynaphthalen-2-yl) Methyl Ester]
- Specific Activity, With Enzyme System [3]: 102.4 ± 7.5 pmol/min/mg protein
- Specific Activity, Without Enzyme System [3]: 33.4 ± 2.0 pmol/min/mg protein
- Substrate stability, UV Absorption ([4]; pH 6, tris maleate 0.1 M): <0.01 mAbs/min
- Substrate stability, UV Absorption ([4]; pH 7, tris maleate 0.1 M): <0.01 mAbs/min
- Substrate stability, UV Absorption ([4]; pH 8, tris maleate 0.1 M): <0.01 mAbs/min
- Substrate stability, UV Absorption ([4]; pH 9, tris maleate 0.1 M): 0.05 mAbs/min
- Substrate stability, Fluorescence ([5]; pH 6, tris maleate 0.1 M): <1 pmol/min
- Substrate stability, Fluorescence ([5]; pH 7, tris maleate 0.1 M): <1 pmol/min
- Substrate stability, Fluorescence ([5]; pH 8, tris maleate 0.1 M): <1 pmol/min
- Substrate stability, Fluorescence ([5]; pH 9, tris maleate 0.1 M): 10 pmol/min
- Specific Activity [6]: 840 ± 22 pmol/min/mg protein
- Specific Activity [7]: 150 ± 9 pmol/min/mg protein
- Specific Activity [8]: 142,000 ± 520 pmol/min/mg protein
- Specific Activity [9]: 270 ± 18 pmol/min/mg protein

- melting point: 74 to 75 °C
Compound: N#CC(OC(=O)C/C=C/c1ccccc1)c1ccc2ccccc2c1 (centres unmarked)

- melting point: 37 to 38 °C
Compound: CC(=O)OC(C#N)c1ccc2ccccc2c1 (racemic)

Compound: CC(=O)Oc1ccc2ccccc2c1 [Compound 2-NA, 2-naphthacetate, reference compound]
- Sensitivity (minimal amount of enzyme per mL giving a signal at least three times background noise) ([1]; UV detection): 0.002
- Substrate stability, UV Absorption ([4]; pH 6, tris maleate 0.1 M): <0.01 mAbs/min
- Substrate stability, UV Absorption ([4]; pH 7, tris maleate 0.1 M): 0.05 mAbs/min
- Substrate stability, UV Absorption ([4]; pH 8, tris maleate 0.1 M): 0.44 mAbs/min
- Substrate stability, UV Absorption ([4]; pH 9, tris maleate 0.1 M): 0.555 mAbs/min
- OD (optical density) ([10]; tris-maleate pH 6.5, 10 μM): 0.14
- ε (molar absorptivity) ([10]; tris-maleate pH 6.5, 10 μM): 3,500
- OD (optical density) ([10]; tris-maleate pH 7.5, 10 μM): 0.141
- ε (molar absorptivity) ([10]; tris-maleate pH 7.5, 10 μM): 3,500
- OD (optical density) ([10]; tris-maleate pH 8.5, 10 μM): 0.133
- ε (molar absorptivity) ([10]; tris-maleate pH 8.5, 10 μM): 3,300

Compound: CCCCCOc1ccc2nc3ccc(=O)cc-3oc2c1 [Compound B, pentoxyresorufin, reference compound]
- Specific Activity, With Enzyme System [3]: 62.5 ± 5.2 pmol/min/mg protein
- Specific Activity, Without Enzyme System [3]: 41.8 ± 2.2 pmol/min/mg protein

- Specific Activity, With Enzyme System [3]: 275.8 ± 20.5 pmol/min/mg protein
- Specific Activity, Without Enzyme System [3]: 45.9 ± 3.0 pmol/min/mg protein
- melting point: 47 to 48 °C
Compound: COC(C#N)c1ccc2ccccc2c1 (centres unmarked) [Compound III, Methoxynaphthalene-2-yl Acetonitrile]

- Specific Activity, With Enzyme System [3]: 292.6 ± 16.2 pmol/min/mg protein
- Specific Activity, Without Enzyme System [3]: 40.0 ± 1.2 pmol/min/mg protein
- melting point: 53 to 54 °C
Compound: CCOC(C#N)c1ccc2ccccc2c1 (centres unmarked) [Compound IV, Ethoxynaphthalene-2-yl Acetonitrile]

- Emmax (maximal emission wavelength) ([2]; tris-maleate pH 6.5, 10 μM): 460 nm
- Ex (optimal excitation wavelength) ([2]; tris-maleate pH 6.5, 10 μM): 330 nm
- RFU (relative fluorescence units multiplied by 1,000) ([2]; tris-maleate pH 6.5, 10 μM): 18,830 RFU
- Emmax (maximal emission wavelength) ([2]; tris-maleate pH 7.5, 10 μM): 460 nm
- Ex (optimal excitation wavelength) ([2]; tris-maleate pH 7.5, 10 μM): 330 nm
- RFU (relative fluorescence units multiplied by 1,000) ([2]; tris-maleate pH 7.5, 10 μM): 19,025 RFU
- Emmax (maximal emission wavelength) ([2]; tris-maleate pH 8.5, 10 μM): 460 nm
- Ex (optimal excitation wavelength) ([2]; tris-maleate pH 8.5, 10 μM): 330 nm
- RFU (relative fluorescence units multiplied by 1,000) ([2]; tris-maleate pH 8.5, 10 μM): 19,195 RFU
Compound: hydroxycoumarin [HO-coumarin]

- OD (optical density) ([10]; tris-maleate pH 6.5, 10 μM): 0.473
- λmax ([10]; tris-maleate pH 6.5, 10 μM): 314 nm
- ε (molar absorptivity) ([10]; tris-maleate pH 6.5, 10 μM): 11,870
- OD (optical density) ([10]; tris-maleate pH 7.5, 10 μM): 0.468
- λmax ([10]; tris-maleate pH 7.5, 10 μM): 313 nm
- ε (molar absorptivity) ([10]; tris-maleate pH 7.5, 10 μM): 11,700
- OD (optical density) ([10]; tris-maleate pH 8.5, 10 μM): 0.465
- λmax ([10]; tris-maleate pH 8.5, 10 μM): 314 nm
- ε (molar absorptivity) ([10]; tris-maleate pH 8.5, 10 μM): 11,630
- emission peak ([2]; over the three pH levels tested (6.5, 7.5, 8.5)): 460 nm
- Emmax (maximal emission wavelength) ([2]; tris-maleate pH 6.5, 10 μM): 450 nm
- Ex (optimal excitation wavelength) ([2]; tris-maleate pH 6.5, 10 μM): 360 nm
- RFU (relative fluorescence units multiplied by 1,000) ([2]; tris-maleate pH 6.5, 10 μM): 17,783 RFU
- Emmax (maximal emission wavelength) ([2]; tris-maleate pH 7.5, 10 μM): 485 nm
- Ex (optimal excitation wavelength) ([2]; tris-maleate pH 7.5, 10 μM): 360 nm
- RFU (relative fluorescence units multiplied by 1,000) ([2]; tris-maleate pH 7.5, 10 μM): 19,250 RFU
- Emmax (maximal emission wavelength) ([2]; tris-maleate pH 8.5, 10 μM): 510 nm
- Ex (optimal excitation wavelength) ([2]; tris-maleate pH 8.5, 10 μM): 360 nm
- RFU (relative fluorescence units multiplied by 1,000) ([2]; tris-maleate pH 8.5, 10 μM): 19,256 RFU
Compound: COc1ccc2cc(C=O)ccc2c1 [aldehyde, 6-methoxy-2-naphthaldehyde]

- Specific Activity, With Enzyme System [3]: 89.0 ± 4.6 pmol/min/mg protein
- Specific Activity, Without Enzyme System [3]: 52.2 ± 1.9 pmol/min/mg protein
Compound: CCOc1ccc2nc3ccc(=O)cc-3oc2c1 [Compound A, ethoxyresorufin, reference compound]

- melting point: 60 to 61 °C
Compound: CCC1OC1CC(=O)OC(C#N)c1ccc2ccccc2c1 (centres unmarked)

- melting point: 36 to 37 °C
Compound: N#CC(OCc1ccccc1)c1ccc2ccccc2c1 (centres unmarked)
